Converted amounts (≈) assume the structure as drawn. Where a SMILES comes first, the peptide text is derived from it. Bridges are numbered along the chain shown (N, C = ends). [ ]: non-standard residue; d: D form. The star is where a group is joined. Val(Nα-amidino) = CC(C)[C@H](NC(=N)N)C(=O)*; Hyp = O=C(O)[C@@H]1C[C@@H](O)CN1; Pen = CC(C)(S)[C@H](N)C(=O)O; dDab = NCC[C@@H](N)C(=O)O; Dab = NCC[C@H](N)C(=O)O
Experiments:
[1] = tested on: human red blood cells; test: Haemolysis; type: cell-based; conditions: PBS-washed human red blood cells; 1 h at 200 mg/liter, 37°C; OD 540 nm; versus 100% lysis control 2.5% Triton X-100; biological replicates
Protocol: To test their hemolytic potential, compounds were incubated in the presence of phosphate-buffered saline (PBS)–washed human red blood cells. After 1-hour incubation at 200 mg/liter and 37°C, the samples were centrifuged (3220g), the supernatants were diluted in Dulbecco’s PBS, and optical density at 540 nm was determined. The hemolysis induced by the compound was calculated versus a 100% lysis control prepared with 2.5% Triton X-100 (table S4A).

[2] = 7-day repeated dosing (IV bolus q12h); type: in vivo, CD-1 mice; conditions: mice, intravenous BID 15 mg/kg per dose, seven consecutive days
Protocol: Two different study designs were used to determine the potential toxicity of these compounds, when given BID via intravenous bolus (injection) 12 hours apart to CD-1 mice. In the first type of study, male mice were dosed on a single day at three escalating dose levels (three mice per group), while the second type of study male mice (nine mice per group) were dosed for seven consecutive days with the same administration regimen (q12h). […] Detailed clinical observations were conducted up to at least 3 hours after the first daily dosing and up to at least 1 hour after the second daily dosing. In addition, the Irwin battery of tests was used to assess the mice neurobiological and physiological state during the single day study at 30, 60, 120, 180, and 240 min after the first administration. The following parameters were included in the observations: occurrence of abnormal gait, catalepsy, piloerection, abnormal respiration, increase or decrease in spontaneous activity, spontaneous activity following audible stimuli (tapping on side of cage), touch response, and body tonus. Any additional symptoms observed were also reported.

[3] = tested on: E. coli ATCC 25922 LptA Q62L mutant; test: microbe, parasite or virus in culture; conditions: for MIC E. coli ATCC 25922 Q62L mutant: CLSI method, clone harboring LptA Q62L
Procedure, shortened: (§1)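 First, MICs were measured per CLSI. Next, organisms underwent serial passage. Finally, resistant mutants were isolated, their MICs determined, and whole genomes sequenced with bioinformatic analysis.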

[4] = tested on: K. pneumoniae NCTC 13443 (NDM-1) LptA Q62L mutant; test: microbe, parasite or virus in culture; conditions: for MIC K. pneumoniae NCTC 13443 (NDM-1) Q62L mutant: CLSI method, clone harboring LptA Q62L
Procedure, shortened: as §1

[5] = tested on: E. coli ATCC 25922 (parent / WT); test: microbe, parasite or virus in culture; conditions: for MIC E. coli ATCC 25922 Parent: CLSI method, parent strain
Procedure, shortened: as §1

[6] = tested on: K. pneumoniae ATCC 43816 (parent / WT); test: microbe, parasite or virus in culture; conditions: ATCC 43816
Procedure, shortened: as §1

[7] = tested on: K. pneumoniae NCTC 13443 (NDM-1) (parent / WT); test: microbe, parasite or virus in culture; conditions: for MIC K. pneumoniae NCTC 13443 (NDM-1) Parent: CLSI method, parent strain
Procedure, shortened: as §1

[8] = tested on: Proteus vulgaris; conditions: CLSI microdilution method; LptA sequence identity 55
Protocol: (§2) MIC assays [Clinical and Laboratory Standards Institute (CLSI) methodology] and serial passage studies were performed as described by Luther et al. ([6]). […] Resistant mutants were isolated, and their MIC values were determined and sent to Microbes NG (Birmingham, United Kingdom) for whole-genome sequencing and bioinformatic analysis.

[9] = tested on: Citrobacter freundii; conditions: CLSI microdilution method; LptA sequence identity 92
Protocol: as §2

[10] = tested on: Klebsiella oxytoca; conditions: CLSI microdilution method; LptA sequence identity 100
Protocol: as §2

[11] = tested on: Salmonella enterica subsp. enterica; conditions: CLSI microdilution method; LptA sequence identity 91
Protocol: as §2

[12] = tested on: Proteus mirabilis; conditions: CLSI microdilution method; LptA sequence identity 54
Protocol: as §2

[13] = tested on: Enterobacter aerogenes; conditions: CLSI microdilution method; LptA sequence identity 88
Protocol: as §2

[14] = tested on: Moraxella catarrhalis; conditions: CLSI microdilution method; LptA sequence identity 28
Protocol: as §2

[15] = tested on: panel of 121 Enterobacteriaceae including CRE, MDR, and XDR isolates; test: organism not typed; conditions: for MIC50 (n=121): CLSI microdilution method, 121 isolates
Protocol: as §2

[16] = Plasma protein binding; type: in vitro ADME, mouse; conditions: mass balance method, ultrafiltration 30-kDa cutoff; pooled mouse plasma adjusted to pH 7.5; 10 mg/liter; 30 min at 37°C; biological replicates; read-out: Plasma protein binding (% bound) Mouse (converted)
Protocol: After ultrafiltration, protein binding was determined by subtracting the percentage of compound in ultrafiltrate from the total amount of compound in spiked plasma (table S4A).

[17] = in vitro; type: cell-based; conditions: human
Protocol: The cytotoxicity of compounds was determined by determining the number of viable cells using the Sigma Cell Counting Kit-8 (WST-8). HeLa cells were incubated at 37°C and 5% CO2 for 24 hours, after which the medium was replaced with fresh medium containing dilutions of compounds. […]

[18] = molecular target: T1, LptAmQ62L (Escherichia coli, UniProt P0ADV1, Q62L); test: biochemical; type: binding, E. coli
T1 construct: His6-GB1 (N, cleaved yes); made in house; host or cells: E. coli BL21 (DE3)
T1 sequence (P0ADV1 28-159 Q62L): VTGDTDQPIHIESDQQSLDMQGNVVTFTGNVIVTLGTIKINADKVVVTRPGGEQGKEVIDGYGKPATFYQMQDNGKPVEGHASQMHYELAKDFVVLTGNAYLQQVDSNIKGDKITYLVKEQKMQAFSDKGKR
Protocol: (§3) Protein stocks were purified and concentrated in buffer 1 [50 mM Na-Pi (pH 7) and 150 mM NaCl] and, if necessary, diluted to desired concentrations using buffer 2 [50 mM Na-Pi (pH 7), 150 mM NaCl, and 0.05% Tween 20]. Peptide stocks and fluorescently labeled peptide stocks were made in buffer 2. Every serial dilution consisted of 24 wells, the first well with the highest concentrate and the last well (well 24) with the lowest. First, 50 μl of buffer 2 was added to the wells 2 to 24 of each serial dilution. Then, 100 μl of concentrated unlabeled peptide/protein in their respective buffers was added to the first well. Fifty microliters were taken from the first well and added to the second well for a 1:1 serial dilution and continued for the 24 wells. […] Plates were covered with adhesive seals and left to incubate overnight at 4°C before FP measurements the next day. Anisotropy was measured using the Tecan Safire2 plate reader using a 10-nm bandwidth and setting the excitation and emission wavelengths to 635 and 670 nm, respectively. The G-factor (G) was also determined empirically as 1.094 for the instrument and included in all the anisotropy calculations.
(§4) For the indirect binding assays, r was calculated in the same manner as the direct binding assays. […] The control was subtracted from r to yield r′. Data were fit to a sigmoidal interpolation model on GraphPad Prism 9, and an IC50 was generated for each unlabeled peptide or protein measured.

[19] = molecular target: T2, LptAm (Escherichia coli, UniProt P0ADV1); test: biochemical; type: binding, E. coli
T2 construct: His6-GB1 (N, cleaved yes); made in house; host or cells: E. coli BL21 (DE3)
T2 sequence (P0ADV1 28-159): as the sequence (P0ADV1 28-159 Q62L) above, with L35Q counted along it
Protocol: as §3, §4

Structure (SMILES) | Haemolysis % at 0.2 g/L [1] | Tolerability in repeat dose safety study [2] | MIC E. coli ATCC 25922 Q62L mutant [3] | MIC K. pneumoniae NCTC 13443 (NDM-1) Q62L mutant [4] | MIC E. coli ATCC 25922 Parent [5] | MIC K. pneumoniae ATCC 43816 Parent [6] | MIC K. pneumoniae NCTC 13443 (NDM-1) Parent [7] | MIC Proteus vulgaris [8] | MIC Citrobacter freundii [9] | MIC Klebsiella oxytoca [10] | MIC Salmonella enterica subsp. enterica [11] | MIC Proteus mirabilis [12] | MIC Enterobacter aerogenes [13] | MIC Moraxella catarrhalis [14] | MIC50 (n=121) [15] | fraction unbound at 30 min, 10 mg/liter [16] | IC50 at 48 h [17] | IC50 [18] | Ki [18] | IC50 [19] | also measured
CC[C@H](C)[C@H](NC(=O)[C@@H]1C[C@@H](O)CN1C(=O)[C@@H](N)C(C)C)C(=O)N[C@H](C(=O)N[C@@H](Cc1ccc(O)cc1)C(=O)N[C@@H]1C(=O)N[C@@H](CC(N)=O)C(=O)N[C@@H](CCCNC(=N)N)C(=O)N[C@@H](CCN)C(=O)N[C@@H]([C@@H](C)O)C(=O)N[C@H](CCN)C(=O)N[C@@H](CCCCN)C(=O)N[C@H](C(=O)N[C@@H](CCN)C(=O)N[C@@H](CCCNC(=N)N)C(=O)N[C@@H](Cc2ccc(O)cc2)C(=O)O)CSSC1(C)C)[C@@H](C)O [Compound 6] (H-V[Hyp]ITY[Pen]NR[Dab]T[dDab]KC[Dab]RY-OH; disulfide 6-13) | 0% | well tolerated with no adverse events or detectable kidney toxicity | 2 micrograms per milliliter | >8 micrograms per milliliter | 0.125 micrograms per milliliter | 0.25 micrograms per milliliter | 2 micrograms per milliliter | > 8 µg/mL | 0.13 µg/mL (≈ 0.0663 µM) | 0.25 µg/mL (≈ 0.128 µM) | 0.5 µg/mL (≈ 0.255 µM) | > 8 µg/mL | 0.5 µg/mL (≈ 0.255 µM) | > 8 µg/mL | 0.25 µg/mL (≈ 0.128 µM) | 0.11 | 1160 µM | 0.0146 ± 0.0025 µM | 0.0099 ± 0.0017 µM | 0.0169 ± 0.001 µM | MIC90 ([15]; panel of 121 Enterobacteriaceae including CRE, MDR, and XDR isolates): 1 µg/mL (≈ 0.51 µM); Ki [19]: 0.0028 ± 0.0002 µM
CC[C@H](C)[C@H](NC(=O)[C@@H]1C[C@@H](O)CN1C(=O)[C@@H](NC(=N)N)C(C)C)C(=O)N[C@H](C(=O)N[C@@H](Cc1ccc(O)cc1)C(=O)N[C@@H]1C(=O)N[C@@H](CC(N)=O)C(=O)N[C@@H](CCCNC(=N)N)C(=O)N[C@@H](CCN)C(=O)N[C@@H]([C@@H](C)O)C(=O)N[C@H](CCN)C(=O)N[C@@H](CCCCN)C(=O)N[C@H](C(=O)N[C@@H](CCN)C(=O)N[C@@H](CCCNC(=N)N)C(=O)N[C@@H](Cc2ccc(O)cc2)C(=O)O)CSSC1(C)C)[C@@H](C)O [Compound 7] ({Val(Nα-amidino)}-[Hyp]ITY[Pen]NR[Dab]T[dDab]KC[Dab]RY-OH; disulfide 5-12) | 0% | well tolerated with no adverse events or detectable kidney toxicity | 4 micrograms per milliliter | >8 micrograms per milliliter | 0.063 micrograms per milliliter | 0.125 micrograms per milliliter | 0.5 micrograms per milliliter | > 8 µg/mL | 0.5 µg/mL (≈ 0.25 µM) | 0.5 µg/mL (≈ 0.25 µM) | 1 µg/mL (≈ 0.5 µM) | > 8 µg/mL | 1 µg/mL (≈ 0.5 µM) | > 8 µg/mL | 0.25 µg/mL (≈ 0.125 µM) | 0.06 | 456 µM | 0.0254 ± 0.0046 µM | 0.0172 ± 0.0031 µM | 0.0117 ± 0.0005 µM | MIC Escherichia coli ATCC 25922 LptA Q62L (7x) ([3]; Table S9 panel): 2 µg/mL (≈ 0.999 µM); MIC Klebsiella pneumoniae NCTC 13443 LptA Q62L (5x) ([4]; Table S9 panel): > 16 µg/mL; MIC Escherichia coli ATCC 25922 WT ([5]; Table S9 panel, WT): 0.125 µg/mL (≈ 0.0625 µM); MIC Klebsiella pneumoniae ATCC 43816 WT [6]: 0.25 µg/mL (≈ 0.125 µM); MIC Klebsiella pneumoniae NCTC 13443 WT ([7]; Table S9 panel, WT): 1 µg/mL (≈ 0.5 µM); Ki [19]: 0.0019 ± 0.0001 µM
